The data set is described as follows: solvent given as SMILES.

For the setting “in ClC(Cl)Cl”, `COc1ccc(C2=c3sc(-c4ccc(OC)cc4)cc3=[N+]3C2=Nc2c(-c4ccc(OC)cc4)c4sc(-c5ccc(OC)cc5)cc4n2[B-]3(F)F)cc1` yielded a fluorescence lifetime of 1.69 ns.

Turning to `C(#Cc1ccc(C#Cc2ccccc2)cc1)c1ccccc1`, the fluorescence lifetime (in ClC(Cl)Cl) was found to be 2.57 ns.

For `Cc1c(-c2nc(-c3ccccc3)nc(-c3ccccc3)n2)ccc(-n2c3ccccc3c3cc4c(cc32)C2c3ccccc3C4c3ccccc32)c1C`, where the note is “in O=P(c1ccccc1)(c1ccccc1)c1ccccc1Oc1ccccc1P(=O)(c1ccccc1)c1ccccc1”, the fluorescence lifetime was determined as 10 ns.

Consider `C[Si]1(C)c2cc(-c3ccccc3)ccc2C=Cc2ccc(-c3ccccc3)cc21`, for which the fluorescence lifetime (in ClCCl) turned out to be 1.6 ns.

Turning to `N#Cc1cccc(N)c1`, the fluorescence lifetime turned out to be 2.4 ns (in C1CCCCC1); 5.1 ns (in CC#N); 1.9 ns (in CCCCCC); 6.2 ns (in CCO); 0.045 ns (in O); 0.11 ns (in OCC(F)(F)F).

Consider `CCN(CC)c1ccc2c(c1)oc(=O)c1c(C)nc3c(cnn3-c3ccccc3)c12`, for which, under “in ClCCl”, the fluorescence lifetime is 2.72 ns.

Regarding `O=[N+]([O-])c1ccc([N+]2=Cc3ccc4ccccc4c3O[B-]2(F)F)cc1`, the fluorescence lifetime (in ClCCl) is 7.6 ns.

Take `CC(C)(C)c1cc(-n2c(-c3ccc(C(=C(c4ccccc4)c4ccccc4)c4ccccc4)cc3)cc3c2cc(-c2ccc(C(=C(c4ccccc4)c4ccccc4)c4ccccc4)cc2)n3-c2cc(C(C)(C)C)cc(C(C)(C)C)c2)cc(C(C)(C)C)c1`: for the setting “in ClCCl”, the fluorescence lifetime came to 0.063 ns.

For the molecule `C[Si]1(C)c2ccccc2-c2ccccc21`, the fluorescence lifetime (in ClCCl) was 0.15 ns.

Regarding `COC(=O)c1ccc(C#Cc2ccc(N(C)C)cc2)cc1`, the fluorescence lifetime (in C1CCCCC1) amounted to 1.35 ns; the fluorescence lifetime (in C1CCOC1) is 2.43 ns; the fluorescence lifetime (in C1COCCO1) stood at 2.38 ns; the fluorescence lifetime (in CC1CCCO1) was found to be 2.68 ns; the fluorescence lifetime (in CC#N) is 1.48 ns; the fluorescence lifetime (in CC(C)=O) was 1.51 ns. Besides, the fluorescence lifetime reads like this: (in CC(C)CC(C)(C)C) 0.73 ns; (in CC(C)O) 1.32 ns; (in CCCCCCCCCCCCCCCC) 0.75 ns; (in CCCCCCCCCCCCCCCCCl) 0.92 ns; (in CCOC(C)=O) 2.47 ns; (in CCOCC) 0.959 ns. The fluorescence lifetime reads like this: (in CN(C)C=O) 1.7 ns; (in CS(C)=O) 1.92 ns; (in Cc1ccccc1) 0.9 ns.

`O=c1oc2ccc3ccc(O)cc3c2nc1-c1ccccc1` displayed a fluorescence lifetime (in c1ccccc1) of 4.8 ns.

Consider `CCCCCCCCC1(CCCCCCCC)c2cc(-c3ccc([N+](=O)[O-])cc3)ccc2-c2ccc(-c3ccc([N+](=O)[O-])cc3)cc21`, for which the fluorescence lifetime is 1.92 ns (in CN(C)C=O) and 1.82 ns (in CS(C)=O).

With `CCn1c2ccccc2c2cc(-c3cc(-c4ccc5c(c4)c4ccccc4n5CC)ncn3)ccc21`, under “in C1CCOC1”, the fluorescence lifetime came out at 1.86 ns.

As for `CCCCCCN1C(=O)c2cccc3cc(/N=C\c4ccc(N(c5ccccc5)c5ccccc5)cc4)cc(c23)C1=O`, the fluorescence lifetime (in ClC(Cl)Cl) was determined as 15.4 ns.

Molecule `Nc1ccc2cc3ccccc3cc2c1` had a fluorescence lifetime (in C1CCCCC1) of 33 ns.

For `N#Cc1ccc2nc3[nH]c(=O)[nH]c(=O)c3nc2c1`, the fluorescence lifetime (in ClCCCl) stood at 0.18 ns.

Regarding `O=c1oc2ccccc2cc1-c1nc2ccccc2o1`, the fluorescence lifetime runs as follows: (in CO) 3.47 ns; (in ClC(Cl)(Cl)Cl) 3.17 ns; (in OCCO) 3.78 ns.

In turn, `COC(=O)C12N=N[C@](C(=O)OC)(C3C4CCC(C4)C31)C1[C@@H]3CC[C@@H](C3)[C@H]12` (some centres not stated) had a fluorescence lifetime (in CC#N) of 273 ns.

As for `CCN(CC)c1ccc(C=Cc2nc3nc4ccccc4nc3s2)c(OC)c1`, the fluorescence lifetime runs as follows: (in CCCCCCC(C)O) 0.977 ns; (in CCOC(C)=O) 0.96 ns; (in CO) 0.04 ns; (in CS(C)=O) 0.41 ns; (in Cc1ccccc1) 0.27 ns; (in ClC(Cl)Cl) 0.97 ns. In addition, the fluorescence lifetime (in ClCCl) amounted to 1.29 ns.

On to `c1csc(-c2ccc(-c3ccc(-c4cccs4)s3)s2)c1`, for which the fluorescence lifetime reads like this: (in CCC(C)C) 0.52 ns; (in ClCCl) 0.44 ns.

For `CN(C)c1ccc(-c2c(/C=C3/C=Cc4ccccc4N3C)c(=O)c2=O)cc1`, the fluorescence lifetime amounted to 1.54 ns (in C1CCCCC1), 2.48 ns (in Cc1ccccc1) and 0.15 ns (in ClCCl).

Regarding `CC(C)(C)c1ccc2ccc3c(C(C)(C)C)ccc4ccc1c2c43`, the fluorescence lifetime turned out to be 60.9 ns (in CCCCCC), 78.6 ns (in CO) and 43.1 ns (in ClCCl).

As to `CCCCc1cc2cccc[n+]2[b-]2ccc(-c3cc[b-]4c(c3)c(CCCC)cc3cccc[n+]43)cc21`, the fluorescence lifetime (in C1CCCCC1) was 3.5 ns.

Consider `Cc1ccc(/C2=C3N=C(C(c4ccccc4)=C/3c3ccccc3)/C(c3ccc(C)cc3)=c3\[nH]/c(c(-c4ccccc4)c3-c3ccccc3)=C(/c3ccc(C)cc3)C3=N/C(=C(/c4ccc(C)cc4)c4[nH]c2c(-c2ccccc2)c4-c2ccccc2)C(c2ccccc2)=C3c2ccccc2)cc1`, for which the fluorescence lifetime (in ClCCl) is 0.472 ns.

Turning to `COc1cc2c(cc1-c1ccc([N+](=O)[O-])cc1)Cc1c3c(c4c(c1-2)-c1cc(OC)c(-c2ccc([N+](=O)[O-])cc2)cc1C4)C(=O)N(CCC(C)C)C3=O`, under “in C1CCOC1”, the fluorescence lifetime came to 1.43 ns.

Under “in CC#N”, `F[B-]1(F)OC(c2ccc3c(c2)Cc2ccccc2-3)=CC(c2ccccc2)=[O+]1` showed a fluorescence lifetime of 2.6 ns.

As for `O=c1c2cccc3cccc(c32)c2nc3ccccc3n12`, the fluorescence lifetime (in ClCCl) turned out to be 11.1 ns.

Consider `CC(C)c1cc(C(C)C)c(-c2nnc(-c3ccc(-n4c5ccccc5c5ccccc54)cc3)o2)c(C(C)C)c1`, for which the fluorescence lifetime (in CCO) stood at 2.19 ns.

Take `COC(=O)CC1(C(=O)OC)Oc2c(c(C(C)=O)c3c(c2C(C)=O)OCO3)O1`: for the setting “in CC#N”, the fluorescence lifetime stood at 22.4 ns.

`N#Cc1cc(-n2c3ccccc3c3ccccc32)c(-n2c3ccccc3c3ccccc32)cc1C#N` came in with a fluorescence lifetime (in Cc1ccccc1) of 28.5 ns.

Regarding `Nc1ccc2c(c1)-c1ccccc1C2=O`, the fluorescence lifetime (in CC#N) stood at 5.9 ns and the fluorescence lifetime (in c1ccccc1) came out at 11 ns.

Turning to `COC(=O)[C@]12N=N[C@](C(=O)OC)(C3C4C5C4C5C31)C1C3C4C3C4C12` (some centres not stated), for the setting “in CC#N”, the fluorescence lifetime came out at 166 ns.

With `COc1cc2c(cc1-c1ccc(C(F)(F)F)cc1)Cc1c3c(c4c(c1-2)-c1cc(OC)c(-c2ccc(C(F)(F)F)cc2)cc1C4)C(=O)N(CCC(C)C)C3=O`, the fluorescence lifetime (in C1CCOC1) worked out at 2.43 ns.

As to `N#C/C(=C\c1ccc([N+](=O)[O-])cc1)c1nc(-c2ccccc2)cs1`, the fluorescence lifetime (in CC#N) was 2.85 ns.

Turning to `CC(C)c1cc(C(C)C)c(B2c3ccccc3Oc3cc(N4c5ccccc5C(C)(C)c5ccccc54)ccc32)c(C(C)C)c1`, the fluorescence lifetime (in Cc1ccccc1) amounted to 33 ns.

The molecule `CC1(C)OB(c2cc3ccc4cc(B5OC(C)(C)C(C)(C)O5)cc5ccc(c2)c3c45)OC1(C)C` gave a fluorescence lifetime (in Cc1ccccc1) of 36 ns.

In the case of `CN1c2ccccc2CCc2ccccc21`, the fluorescence lifetime came to 0.63 ns (in CC#N) and 0.81 ns (in CO).

For `[O-]c1ccccc1/C=N/c1ccccc1/N=C/c1ccccc1[O-]`, the fluorescence lifetime (in C1CCOC1) turned out to be 0.0036 ns.

Take `CCCCCCC(CCCCCC)N1C(=O)c2cccc3c(-c4ccc(N(C)C)cc4)ccc(c23)C1=O`: the fluorescence lifetime turned out to be 3.47 ns (in CCCCCC); 3.61 ns (in CCCCCCCCCCCCCC); 5.51 ns (in CCCCCCCCCCCO); 3.5 ns (in CCCCO); 5.12 ns (in Cc1ccccc1); 6.99 ns (in ClC(Cl)Cl).

As to `CC1(C)c2ccccc2N(c2ccc3c(c2)c2ccccc2c2nc4ccccc4nc32)c2ccccc21`, the fluorescence lifetime (in c1cc(-c2cccc(-n3c4ccccc4c4ccccc43)c2)cc(-n2c3ccccc3c3ccccc32)c1) was found to be 68 ns.

As for `CC(C)(C)C1Nc2ccccc2C(=O)N1Cc1ccccc1` (configuration not stated), the fluorescence lifetime was 2.43 ns (in CC#N); 4.97 ns (in CCCCCCCCCCCCCCCC); 5.24 ns (in CO); 5.86 ns (in ClC(Cl)Cl); 5.11 ns (in c1ccccc1).

For the setting “in Cc1ccccc1”, `c1ccc(-c2nc(-c3ccccc3)nc(-c3ccc(-n4c5ccc(-n6c7ccccc7c7ccccc76)cc5c5cc(-n6c7ccccc7c7ccccc76)ccc54)cc3)n2)cc1` gave a fluorescence lifetime of 6 ns.

`Cc1ccc2nc3c(=O)n(C)c(=O)nc-3n(C)c2c1`: the fluorescence lifetime (in CC#N) worked out at 4.9 ns.

The molecule `C[Si](C)(C)C#CC1=CC2=c3cc(C#C[Si](C)(C)C)c4nc(C(F)(F)C(F)(F)C(F)(F)F)nc5c(C#C[Si](C)(C)C)cc(c3c54)C3=CC(C#C[Si](C)(C)C)=C4N=C(C(F)(F)C(F)(F)C(F)(F)F)N=C1C4C32` (configuration not stated) gave a fluorescence lifetime (in C1CCOC1) of 2.1 ns.

Regarding `CC1=[N+]2C(=C(c3ccc(C(=O)c4ccccc4)cc3)c3ccc(C)n3[B-]2(F)F)C=C1c1cc2n(c1)[B-](F)(F)[N+]1=CC=CC1=C2c1c(C)cc(C)cc1C`, the fluorescence lifetime (in C1CCCCC1) is 2.9 ns and the fluorescence lifetime (in CCOC(C)=O) turned out to be 0.92 ns.

For the setting “in ClC(Cl)Cl”, `CCCCCCCCn1c(=O)c2cc3c(C#Cc4ccc(N(c5ccccc5)c5ccccc5)cc4)c4cc5c(=O)n(CCCCCCCC)c(=O)c5cc4c(C#Cc4ccc(N(c5ccccc5)c5ccccc5)cc4)c3cc2c1=O` had a fluorescence lifetime of 3.4 ns.

Take `COc1ccc(/C=C/C2=CC(/C=C/c3ccc(OC)c4ccccc34)=[O+][B-](F)(F)O2)c2ccccc12`: the fluorescence lifetime amounted to 0.65 ns (in CC#N); 1.03 ns (in CC(C)=O); 1.51 ns (in CCOC(C)=O); 1.34 ns (in CCOCC); 1.18 ns (in ClC(Cl)(Cl)Cl); 1.96 ns (in ClCCl).

Molecule `COc1c2ccccc2c(OC)c2c1c1cc(F)ccc1n2C` displayed a fluorescence lifetime (in C1CCCCC1) of 25 ns, a fluorescence lifetime (in CC#N) of 25.3 ns, a fluorescence lifetime (in CO) of 26.7 ns and a fluorescence lifetime (in ClCCl) of 23.2 ns.

`COCCOCCOCCOCC(COCCOCCOCCOC)Oc1cc(/C=C/c2ccc(/C=C(\C#N)C(=O)c3ccccc3)cc2)c(OC(COCCOCCOCCOC)COCCOCCOCCOC)cc1/C=C/c1ccc(/C=C(\C#N)C(=O)c2ccccc2)cc1` gave a fluorescence lifetime (in ClCCl) of 1 ns.

In the case of `CCN1C(=O)C(C2C(=O)c3c4ccccc4cc4cc5ccccc5c2c34)SC1=S` (configuration not stated), the fluorescence lifetime (in C1CCOC1) worked out at 11.8 ns; the fluorescence lifetime (in CC#N) was 7.8 ns; the fluorescence lifetime (in CCCCCC) was determined as 12.8 ns; the fluorescence lifetime (in Cc1ccccc1) was 13.2 ns; the fluorescence lifetime (in ClCCl) came to 10.4 ns.
